Data reported in ChEMBL document CHEMBL1159308, “A new triterpene saponin from Pittosporum viridiflorum from the Madagascar rainforest” (J Nat Prod, 2002).
Converted amounts (≈) assume the structure as drawn.

Assays:
Saccharomyces cerevisiae [1] = assay: DNA damaging activity against yeast Sc7 mutant assessed as drug level required to produce 12 mm zone of inhibition; format: functional
Saccharomyces cerevisiae [2] = assay: DNA damaging activity against yeast 1140 mutant assessed as drug level required to produce 12 mm zone of inhibition; format: functional
A2780 = assay: Cytotoxicity against human A2780 cells; format: functional, cell-based
Saccharomyces cerevisiae [3] = assay: DNA damaging activity against yeast 1138 mutant assessed as drug level required to produce 12 mm zone of inhibition; format: functional
Saccharomyces cerevisiae [4] = assay: DNA damaging activity against yeast 1353 mutant assessed as drug level required to produce 12 mm zone of inhibition; format: functional

SMILES: C/C=C(/C)C(=O)O[C@H]1[C@H](OC(=O)C=C(C)C)[C@@]2(CO)[C@H](CC1(C)C)C1=CC[C@@H]3[C@@]4(C)CC[C@H](O[C@@H]5O[C@H](C(=O)O)[C@@H](O[C@H]6O[C@H](CO)[C@@H](O)[C@@H]6O)[C@H](O[C@H]6OC[C@@H](O)[C@@H](O)[C@@H]6O)[C@H]5O[C@@H]5O[C@H](CO)[C@@H](O)[C@H](O)[C@H]5O)C(C)(C)[C@@H]4CC[C@@]3(C)[C@]1(C)[C@@H](O)[C@H]2O [PITTOVIRIDOSIDE]
- IC12 (Saccharomyces cerevisiae [1]): 100 µg/mL
- IC12 (Saccharomyces cerevisiae [2]): 80 µg/mL
- IC50 (A2780): 10.1 µg/mL (≈ 7.93 µM)
- IC12 (Saccharomyces cerevisiae [3]): 85 µg/mL
- IC12 (Saccharomyces cerevisiae [4]): 140 µg/mL
